# Data from US12029744B2, “Bicyclic heteroaryl derivatives as ectonucleotide pyrophosphatase phosphodiesterase 1 inhibitors” (Riboscience LLC, priority 2019, dated 2024).
# Where a name gives a salt, the structure may show the parent alone.
# Biological target: T1, ENPP1 (Homo sapiens, UniProt P22413)
# T1 sequence (P22413 1-925): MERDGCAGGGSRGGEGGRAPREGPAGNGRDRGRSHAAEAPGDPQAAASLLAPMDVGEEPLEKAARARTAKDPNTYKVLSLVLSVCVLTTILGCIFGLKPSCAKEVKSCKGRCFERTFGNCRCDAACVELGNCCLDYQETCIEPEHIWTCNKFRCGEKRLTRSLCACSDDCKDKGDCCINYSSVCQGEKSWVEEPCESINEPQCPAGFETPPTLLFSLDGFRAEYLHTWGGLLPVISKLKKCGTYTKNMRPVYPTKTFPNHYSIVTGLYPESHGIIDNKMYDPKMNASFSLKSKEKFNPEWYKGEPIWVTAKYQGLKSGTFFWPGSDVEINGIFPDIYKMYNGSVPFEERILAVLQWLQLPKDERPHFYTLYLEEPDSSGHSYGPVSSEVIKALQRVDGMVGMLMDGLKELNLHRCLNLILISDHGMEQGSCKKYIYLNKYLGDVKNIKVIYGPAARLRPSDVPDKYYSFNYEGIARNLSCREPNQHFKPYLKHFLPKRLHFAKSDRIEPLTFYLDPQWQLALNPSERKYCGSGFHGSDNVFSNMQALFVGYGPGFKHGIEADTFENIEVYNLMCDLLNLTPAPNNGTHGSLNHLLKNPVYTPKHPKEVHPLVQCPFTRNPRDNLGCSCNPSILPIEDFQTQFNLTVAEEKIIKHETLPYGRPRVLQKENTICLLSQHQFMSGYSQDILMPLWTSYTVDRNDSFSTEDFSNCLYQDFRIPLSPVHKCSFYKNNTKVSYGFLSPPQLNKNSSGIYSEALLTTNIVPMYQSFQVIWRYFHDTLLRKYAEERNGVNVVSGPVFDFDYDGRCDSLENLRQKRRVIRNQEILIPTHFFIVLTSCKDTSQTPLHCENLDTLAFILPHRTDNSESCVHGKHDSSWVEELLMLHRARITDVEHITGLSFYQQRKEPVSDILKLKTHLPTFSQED
# Experiment: Measurement of pNP-TMP hydrolysis by ENPP1 (enzyme activity assay, absorbance at 405 nm)
# Type: biochemical
# Conditions: not given
# Protocol: Measurement of pNP-TMP Hydrolysis by ENPP1
# p-Nitrophenyl thymidine 5′-monophosphate (pNP-TMP) is a synthesized substrate for ENPP1. The ENPP1 enzyme activity assay with pNP-TMP substrate was conducted as follows:
# Incubation of ENPP1 with compounds was set at 25° C. for 10 min. […] For each compound dilution, wells with assay buffer (50 mM Tris-HCl, pH8.8, 250 mM NaCl, 0.1 mg/ml BSA, 1% DMSO) only but no ENPP1 were included as controls for subtraction of test compound derived absorbance at 405 nm.
# Absorbance at 405 nm was recorded immediately in kinetic mode by PerkinElmer 2300 Enspire multimode plate reader.
# For each inhibitor, the specific ENPP1 activity was calculated using the following equation: ENPP1 activity (pmol/min/μg)=Adjusted Vmax (OD405 nm/min)×conversion factor (pmol/OD405 nm)/amount of enzyme (μg)
# Adjusted Vmax=V0×(Km+(S))/(S).
# V0=(OD405 nm with ENPP1−OD405 nm ENPP1 blank)/minutes. OD405 nm was plotted, with blank subtracted, against time (minutes), the initial linear rate is V0. […]
# The slope is the conversion factor. The percent ENPP1 activity for each sample was calculated using the following equation: % enzyme activity=sample enzyme activity/MAX Activity×100%.
# To determine the IC50 for each compound, compound concentration values and percent enzyme activity values were inserted into GraphPad Prism (GraphPad Prism version 7.0 for Windows, GraphPad Software, La Jolla California USA, www.graphpad.com), and Prism's Transform analysis was used to convert the x-axis values (compound concentration) to logarithms. A sigmoidal variable slope nonlinear regression analysis was performed using the following equation: Y=Bottom+(Top−Bottom)/(1+10^[…])).
row,Ki [nM],Compound
1,< 100,"NC(=O)c1ccc2c(ncn2Cc2ccc(P(=O)(O)O)cc2)n1 [Compound 138, 4-((5-carbamoylimidazo[4,5-b]pyridin-1-yl)methyl)phenylphosphonic acid]"

# Same assay, conditions: substrate pNP-TMP 500 μM, KM 232 μM; Ki from IC50 by Cheng-Prusoff; read-out: Ki (pNP-TMP)
row,Ki [nM],Compound
1,< 10,"Cc1nc2nc(C(N)=O)ccc2n1Cc1ccc(B(O)O)cc1 [Compound 144, (4-((5-carbamoyl-2-methyl-1H-imidazo[4,5-b]pyridin-1-yl)methyl)phenyl)boronic acid]"
2,< 100,"CC(C)c1cc2c(O)nccc2n1Cc1ccc(B(O)O)cc1 [Compound 107, 4-((4-hydroxy-2-isopropylpyrrolo[3,2-c]pyridin-1-yl)methyl)phenylboronic acid]"
3,< 100,"Cc1nc2cc(C(N)=O)ccc2n1Cc1ccc(P(=O)(O)O)cc1 [Compound 136, 4-((5-carbamoyl-2-methyl-1,3-benzodiazol-1-yl)methyl)phenylphosphonic acid]"
4,< 10,"N#Cc1ccc2c(c1)ncn2Cc1ccc(B(O)O)cc1 [Compound 15, 4-((5-cyano-1,3-benzodiazol-1-yl)methyl)phenylboronic acid]"
5,< 1000,"COc1nccc2c1cnn2Cc1ccc(B(O)O)cc1 [Compound 98, 4-((4-methoxypyrazolo [4,3-c]pyridin-1-yl)methyl) phenylboronic acid]"
6,< 100,"O=P(O)(O)c1ccc(Cn2ccc3c(O)nccc32)cc1 [Compound 56, (4-((4-hydroxy-1H-pyrrolo[3,2-c]pyridin-1-yl)methyl)phenyl)phosphonic acid]"
7,< 10,"COc1ccc2c(ncn2Cc2ccc(B(O)O)cc2)n1 [Compound 125, 4-((5-methoxyimidazo[4,5-b]pyridin-1-yl)methyl)phenylboronic acid]"
8,< 10,"NC(=O)c1ccc2c(ncn2Cc2ccc(B(O)O)cc2)n1 [Compound 59, 4-((5-carbamoylimidazo[4,5-b]pyridin-1-yl)methyl)phenylboronic acid]"
9,< 100,"NC(=O)c1ccc2c(cnn2Cc2ccc(B(O)O)cc2)c1 [Compound 34, 4-((5-carbamoylindazol-1-yl)methyl)phenylboronic acid]"
10,< 1000,"NC(=O)c1ccc2c(c1)c(Cl)cn2Cc1ccc(P(=O)(O)O)cc1 [Compound 143, 4-((5-carbamoyl-3-chloroindol-1-yl)methyl)phenylphosphonic acid]"
11,< 100,"NC(=O)c1ccc2c(ncn2Cc2ccc(B(O)O)cc2)c1N [Compound 105, 4-((4-amino-5-carbamoyl-1,3-benzodiazol-1-yl)methyl)phenylboronic acid]"
12,< 100,"O=c1[nH]cnc2c1c(F)cn2Cc1ccc(P(=O)(O)O)cc1 [Compound 134, 4-((5-fluoro-4-oxo-3H-pyrrolo[2,3-d]pyrimidin-7-yl)methyl)phenylphosphonic acid]"
13,< 1000,"NC(=O)c1ccc2c(ccn2Cc2ccc(P(=O)(O)O)cc2)c1 [Compound 142, 4-((5-carbamoylindol-1-yl)methyl)phenylphosphonic acid]"
14,< 1000,"CCc1nc2ccnc(O)c2n1Cc1ccc(B(O)O)cc1 [Compound 74, 4-((2-ethyl-4-hydroxyimidazo[4,5-c]pyridin-3-yl)methyl)phenylboronic acid]"
15,< 10,"NC(=O)c1nccc2c1ncn2Cc1ccc(B(O)O)cc1 [Compound 96, 4-((4-carbamoylimidazo[4,5-c]pyridin-1-yl)methyl)phenylboronic acid]"
16,< 10,"CC(C)c1nc2cc(C(N)=O)ccc2n1Cc1ccc(B(O)O)cc1 [Compound 37, 4-((5-carbamoyl-2-isopropyl-1,3-benzodiazol-1-yl)methyl)phenylboronic acid]"
17,< 100,"O=P(O)(O)c1ccc(Cn2ncc3c(O)nccc32)cc1 [Compound 64, 4-((4-hydroxypyrazolo[4,3-c]pyridin-1-yl)methyl)phenylphosphonic acid]"
18,< 100,"CCc1nc2c(O)nccc2n1Cc1ccc(B(O)O)cc1 [Compound 73, 4-((2-ethyl-4-hydroxyimidazo [4,5-c]pyridin-1-yl)methyl) phenylboronic acid]"

row,Ki [nM],Compound
1,< 100,"O=c1[nH]cnc2c1c(F)cn2Cc1ccc(B(O)O)cc1 [Compound 63, (4-((5-fluoro-4-oxo-3,4-dihydro-7H-pyrrolo[2,3-d]pyrimidin-7-yl)methyl)phenyl) boronic acid]"
2,< 1000,"OB(O)c1ccc(Cn2cnc3c(C(F)F)cccc32)cc1 [Compound 130, 4-((4-(difluoromethyl)-1,3-benzodiazol-1-yl)methyl)phenylboronic acid]"
3,< 100,"COc1cc2c(cc1C(N)=O)ncn2Cc1ccc(B(O)O)cc1 [Compound 32, 4-((5-carbamoyl-6-methoxy-1,3-benzodiazol-1-yl)methyl)phenylboronic acid]"
4,< 10,"NC(=O)c1ccc2c(c1)ncn2Cc1ccc(B(O)O)cc1 [Compound 17, 4-((5-carbamoyl-1,3-benzodiazol-1-yl)methyl)phenylboronic acid trifluoroacetic acid salt]"
5,< 10,"CCc1cc2c(O)nccc2n1Cc1ccc(B(O)O)cc1 [Compound 106, 4-((2-ethyl-4-hydroxypyrrolo[3,2-c]pyridin-1-yl)methyl)phenylboronic acid]"
6,< 100,"Nc1nc2c(ncn2Cc2ccc(B(O)O)cc2)c(=O)[nH]1 [Compound 5, 4-((2-amino-6-oxo-1H-purin-9-yl)methyl)phenylboronic acid]"
7,< 1000,"O=c1[nH]cnc2c1ncn2Cc1ccc(B(O)O)cc1 [Compound 3, 4-((6-oxo-1H-purin-9-yl)methyl)phenylboronic acid]"
8,< 10,"N#Cc1ccc2c(ncn2Cc2ccc(B(O)O)cc2)n1 [Compound 70, 4-((5-cyanoimidazo[4,5-b]pyridin-1-yl)methyl)phenylboronic acid]"
9,< 10,OB(O)c1ccc(Cn2cnc3nc(O)ccc32)cc1 [Compound 127]
10,< 1000,"NC(=O)c1ccc2c(c1)ncn2Cc1ccc(P(=O)(O)O)cc1 [Compound 49, 4-((5-carbamoyl-1,3-benzodiazol-1-yl)methyl)phenylphosphonic acid]"
11,< 100,"NC(=O)c1ccc2c(cnn2Cc2ccc(P(=O)(O)O)cc2)c1 [Compound 65, 4-((5-carbamoylindazol-1-yl)methyl) phenylphosphonic acid]"
12,< 10,"CC(C)c1nc2nc(C(N)=O)ccc2n1Cc1ccc(B(O)O)cc1 [Compound 146, 4-((5-carbamoyl-2-isopropylimidazo[4,5-b]pyridin-1-yl)methyl)phenylboronic acid]"
13,< 100,"COC(=O)c1ccc2c(c1)ncn2Cc1ccc(B(O)O)cc1 [Compound 41, 2,2,2-trifluoroacetic acid--(4-((5-(methoxycarbonyl)-1H-benzo[d]imidazol-1-yl)methyl)phenyl)boronic acid (1/1)]"
14,< 10,"Cc1cc2nc(C(N)=O)ccc2n1Cc1ccc(B(O)O)cc1 [Compound 77, 4-((5-carbamoyl-2-methylpyrrolo[3,2-b]pyridin-1-yl)methyl) phenylboronic acid]"
15,< 100,"COc1cc2ncn(Cc3ccc(B(O)O)cc3)c2cc1OC [Compound 1, 4-((5,6-dimethoxy-1,3-benzodiazol-1-yl)methyl)phenylboronic acid]"
16,< 100,"CC(C)c1nc2c(O)nccc2n1Cc1ccc(B(O)O)cc1 [Compound 75, 4-((4-hydroxy-2-isopropylimidazo[4,5-c]pyridin-1-yl)methyl) phenylboronic acid]"
17,< 1000,"N#Cc1ccc2c(c1)ncn2Cc1ccc(P(=O)(O)O)cc1 [Compound 24, (4-((5-cyano-1H-benzo[d]imidazol-1-yl)methyl)phenyl)phosphonic acid]"
